Experimental data published in US10080748B2, “Use of flap inhibitors to reduce neuroinflammation mediated injury in the central nervous system” (Bioscience Pharma Partners, LLC, priority 2014, dated 2018).

Legend:
Format in all cases: in vivo
[1] = system: rats subjected to FPI (TBI model); test: T2-weighted MRI brain swelling (edema) 72 hours after TBI (rat FPI)
Description: Craniotomy and lateral fluid percussion injury (FPI) were performed using a previously validated and published procedure. Farias S, et al. J. Neurotraum, 26, 1977-1986, 2009; Frey L. C. et al. J. Neurosci. Methods 177, 267-272, 2009. Throughout the specification animals subjected to this protocol are referred to as having a TBI since this treatment protocol is a TBI model. Briefly, rats were anesthetized with 3-5% isoflurane, isosol, VEDCO Inc., St. Joseph, Mo., via nose cone and mounted in a stereotaxic head frame. A 3 millimeter (mm) craniotomy was created and centered at 3 mm caudal to bregma and 3.5 mm left of the sagittal suture, keeping the exposed dura intact. One steel support screw was embedded in the skull on the contralateral side. […] Moistened food pellets were provided after injury, and all animals were monitored daily for well-being and weight changes. […]
For each rat, five slices, 1.2 mm thick, spanning the entire area of injury were used to calculate FPI-related brain swelling. The diameter of the injured, ipsilateral hemisphere was measured from midline to the widest point of the cortex (Fiji/ImageJ, NIH). The difference between the ipsilateral (ipsi) and contralateral (contra) hemisphere diameters was then calculated and normalized to the diameter of the contralateral hemisphere using the formula: {(diameter Ipsi−diameter Contra)/diameter Contra}×100 […]

[2] = system: rats subjected to FPI (TBI model); test: Rotarod vestibulomotor performance after TBI (rat FPI); conditions: administered 15 minutes after TBI
Description: Craniotomy and lateral fluid percussion injury (FPI) were performed using a previously validated and published procedure. Farias S, et al. J. Neurotraum, 26, 1977-1986, 2009; Frey L. C. et al. J. Neurosci. Methods 177, 267-272, 2009. Throughout the specification animals subjected to this protocol are referred to as having a TBI since this treatment protocol is a TBI model. Briefly, rats were anesthetized with 3-5% isoflurane, isosol, VEDCO Inc., St. Joseph, Mo., via nose cone and mounted in a stereotaxic head frame. A 3 millimeter (mm) craniotomy was created and centered at 3 mm caudal to bregma and 3.5 mm left of the sagittal suture, keeping the exposed dura intact. One steel support screw was embedded in the skull on the contralateral side. A Luer-Lock hub with an inside diameter of 3.5 mm was centered over the craniotomy and bonded to the skull with cyanoacrylate adhesive and capped. Dental acrylic, Snap, Parka, Inc., Edgewood, N.J., was poured around the huh and screw. […] Moistened food pellets were provided after injury, and all animals were monitored daily for well-being and weight changes.
For rotarod testing, the rod's rotation was programmed to accelerate from 0 to 50 rpm over the course of 300 seconds. Four trials were run at each selected time point after injury and the individual trial and mean times for each animal are recorded. […]

[3] = system: leukotriene LTC4 production; test: LTC4 levels in brain after rat fluid percussion injury (RP LC-MS/MS)
Description: Craniotomy and lateral fluid percussion injury (FPI) were performed using a previously validated and published procedure. Farias S, et al. J. Neurotraum, 26, 1977-1986, 2009; Frey L. C. et al. J. Neurosci. Methods 177, 267-272, 2009. Throughout the specification animals subjected to this protocol are referred to as having a TBI since this treatment protocol is a TBI model. Briefly, rats were anesthetized with 3-5% isoflurane, isosol, VEDCO Inc., St. Joseph, Mo., via nose cone and mounted in a stereotaxic head frame. A 3 millimeter (mm) craniotomy was created and centered at 3 mm caudal to bregma and 3.5 mm left of the sagittal suture, keeping the exposed dura intact. One steel support screw was embedded in the skull on the contralateral side. A Luer-Lock hub with an inside diameter of 3.5 mm was centered over the craniotomy and bonded to the skull with cyanoacrylate adhesive and capped. Dental acrylic, Snap, Parka, Inc., Edgewood, N.J., was poured around the huh and screw. After the acrylic hardened antibiotic ointment was applied around the cap and the animals were returned to their cages. The next day, approximately 15-20 hours later, animals were anesthetized with isoflurane in an induction chamber, immediately connected to the FPI apparatus, and received a 20 millisecond (ms) pulse of pressurized sterile saline at 2.7 atmospheres (atm) of pressure to simulate a moderate severity impact on the intact dural surface through the craniotomy before awakening from anesthesia. […] All animals received a subcutaneous injection of the analgesic, buprenorphine, 0.05 milligram/kilogram (mg/kg) Buprenex, prior to craniotomy, and subsequent injections every 12 hours for two days. Moistened food pellets were provided after injury, and all animals were monitored daily for well-being and weight changes.
Two groups of four rats each were subjected to FPI as described above. Four days prior to the FPI, each animal was briefly anesthetized for less than 5 minutes with 3-3.5% isoflurane and administered either NaCl 0.9%, 2 ml/kg IV (vehicle) or vinblastine sulfate 0.5 mg/kg IV in an identical volume. Neutrophil depletion was verified by complete cell blood counts (CBC) in vinblastine treated animals 4 days after administration. Both groups were euthanized by decapitation and the brain lipids extracted 1 hour after FPI. The amounts of LTC4 formed, measured by RP LC-MS/MS and normalized per milligram of protein, were compared between groups using one-way analysis of variance and the Student-Newman-Keuls test for multiple comparisons.
The indole FLAP inhibitor MK-886 was prepared at a dose of 2.5 milligram/milliliter (mg/ml), dissolved in dimethyl sulfoxide (DMSO) and then diluted with 0.9% saline to 10% DMSO. The rats were briefly anesthetized with 3-3.5% isoflurane and either […] at a dose of 6 mg/kg or vehicle was administered intravenously (IV) by tail vein injection. All animals were allowed to wake before undergoing additional procedures.
Cortical and hippocampal regions from ipsilateral and contralateral hemispheres were collected in 4 ml of 80% methanol, homogenized with a Dounee homogenizer, and internal standards were added to the homogenates. Protein content was measured using bicinchoninic acid assay (BCA) for protein to normalize lipid levels to the amount of tissue. Samples were centrifuged and the supernatant was collected. Samples were diluted to a final methanol concentration of lower than 15% and then the lipids were extracted using a solid phase extraction cartridge, Strata C18-E, 100 mg/1 ml, Phenomenex, Torrence Calif. The eluate, 1 ml of methanol, was dried down and reconstituted in 70 microliters (μl) of High Performance Liquid Chromotography (HPLC) solvent A, which is 8.3 mM acetic acid buffered to pH 5.7 with NH4OH, plus […] of solvent B, which is acetonitrile/methanol, 65/35, v/v. […]

[4] = MK-886 6 mg/kg IV 30 minutes prior to TBI, 1 hour after TBI
[5] = MK-886 6 mg/kg IV 30 minutes prior to TBI, measured 1 hour after TBI
[6] = single dose 15 minutes after TBI

CC(C)c1ccc2c(c1)c(SC(C)(C)C)c(CC(C)(C)C(=O)O)n2Cc1ccc(Cl)cc1 [MK-886, 1-[(4-Chlorophenyl)methyl]-3-[(1,1-dimethylethyl)thio]-α,α-dimethyl-5-(1-methylethyl)-1H-Indole-2-propanoic acid]
normalized brain swelling ([1]; 30 minutes pre-TBI): 4.12+/−0.08% | normalized brain swelling ([1]; 60 minutes post-TBI): 8.98+/−1.0% | vestibulomotor performance on the rotarod compared to vehicle [2]: improved vestibulomotor performance | LTC4 levels lower than vehicle-treated injured animals, contralateral right hemisphere [3, 4]: 64% | LTC4 levels lower than vehicle-treated injured animals, ipsilateral left hemisphere [3, 4]: 85% | LTC4 level, contralateral right hemisphere [3, 5]: 2.6+/−0.80 pg/mg protein | LTC4 level, ipsilateral left hemisphere [3, 5]: 3.39+/−0.42 pg/mg protein | LTC4 level, ipsilateral cortex ([3]; MK-886-treated injured rats): undetectable | LTC4 level, ipsilateral hippocampus ([3]; MK-886-treated injured rats): undetectable | LTC4 level, contralateral hemisphere [3, 6]: below the detectable threshold | LTC4 level, ipsilateral hemisphere [3, 6]: below the detectable threshold
